Consider seven compounds from paper PMC4216207 (Journal of Medicinal Chemistry, 2014).

Data set [1] is described as follows: cellular cytotoxicity assay. The class given is cell-based. The note with it: human, HOS human osteosarcoma cells.
In data set [2] the test system is lentiviral vector harboring WT IN. The experiment in a line: microbe, parasite or virus in culture. The class given is cell-based, HIV-1. The note with it: for antiviral potency against WT vector with increasing FBS: 5%, 10% and 15% FBS, relative to values at 5% FBS, data not shown.
The subject of data set [3] is HIV-1 construct carrying IN mutation R263 K. The experiment in a line: single-round HIV-1 infectivity assay, R263 K IN mutant. The note with it: Human immunodeficiency virus 1, read-out: EC50 R263 K IN mutant. The class given is cell-based.
Data set [4] relates to HIV-1 construct carrying IN mutation G118R. The experiment in a line: single-round HIV-1 infectivity assay, G118R IN mutant. The class given is cell-based. As to conditions: Human immunodeficiency virus 1, read-out: EC50 G118R IN mutant.

As usually defined, the CC50 is the concentration that lowers cell viability or growth by half. `COC(=O)[C@H](C)Nc1c(C(=O)NCc2ccc(F)cc2F)c(=O)n(O)c2ncccc12` [(S)-5r, Methyl (S)-2-((3-((2,4-Difluorobenzyl)carbamoyl)-1-hydroxy-2-oxo-1,2-dihydro-1,8-naphthyridin-4-yl)amino)propanoate] displayed a 50% cytotoxic concentration (CC50) in data set [1] of over 250000 nM. Consider `CC(=O)OCCNc1c(C(=O)NCc2ccc(F)cc2F)c(=O)n(O)c2ncccc12` [5p, 2-((3-((2,4-Difluorobenzyl)carbamoyl)-1-hydroxy-2-oxo-1,2-dihydro-1,8-naphthyridin-4-yl)amino)ethyl Acetate], for which, in data set [2], the “antiviral potency against WT vector with increasing FBS” value is “essentially unchanged”. In turn, `COC(=O)[C@H](Nc1c(C(=O)NCc2ccc(F)cc2F)c(=O)n(O)c2ncccc12)c1ccccc1` [(R)-5s, Methyl (R)-2-((3-((2,4-Difluorobenzyl)carbamoyl)-1-hydroxy-2-oxo-1,2-dihydro-1,8-naphthyridin-4-yl)amino)-2-phenylacetate] gave a cytotoxic concentration (CC50) in data set [1] of over 250000 nM.

A word on the EC50: it is the concentration that produces a half-maximal response. Regarding `Cc1nnc(C(=O)NC(C)(C)c2nc(C(=O)NCc3ccc(F)cc3)c(O)c(=O)n2C)o1` [compound 1, raltegravir], the EC50 in data set [3] was determined as 9 ± 4 nM; in data set [2] (Human immunodeficiency virus 1, read-out: EC50 (WT)), 4 ± 2 nM; in data set [4], 36 ± 5 nM. Regarding `COC(=O)[C@@H](CO)Nc1c(C(=O)NCc2ccc(F)cc2F)c(=O)n(O)c2ncccc12` [(R)-5t, Methyl (R)-2-((3-((2,4-Difluorobenzyl)carbamoyl)-1-hydroxy-2-oxo-1,2-dihydro-1,8-naphthyridin-4-yl)amino)-3-hydroxypropanoate], the 50% cytotoxic concentration (CC50) in data set [1] was over 250000 nM. In the case of `Nc1c(C(=O)NCc2ccc(F)cc2F)c(=O)n(O)c2ncccc12` [5v, 4-Amino-N-(2,4-difluorobenzyl)-1-hydroxy-2-oxo-1,2-dihydro-1,8-naphthyridine-3-carboxamide], the “antiviral potency against WT vector with increasing FBS” value in data set [2] was “essentially unchanged”. On to `COC(=O)CNc1c(C(=O)NCc2ccc(F)cc2F)c(=O)n(O)c2ncccc12` [5q, Methyl 2-((3-((2,4-Difluorobenzyl)carbamoyl)-1-hydroxy-2-oxo-1,2-dihydro-1,8-naphthyridin-4-yl)amino)acetate], for which the “antiviral potency against WT vector with increasing FBS” value in data set [2] is recorded as “essentially unchanged”.
